Measured values taken from patent US20210337847A1, “Mint Flavor Compositions” (The Procter & Gamble Company, priority 2020, published 2021).

Assays:
[1] = Comparison of cooling attributes of (−)-menthol and racemic menthol in a toothpaste (CREST Cavity formulation); format: in vivo; conditions: for Potency compared to L-Menthol / Time Point at Maximum Cooling / Maximum Cooling (0-60 scale) / Maximum Longevity: CREST Cavity formulation; for Maximum Cooling (0-60 scale): 60 = greatest amount of cooling, 0 = least; for Maximum Longevity: longevity of cooling; for EC 50: concentration of coolant giving 50% of its maximal cooling
Description: The following data helps support the use of racemic menthol to reduce costs of mint flavor compositions herein described. From internal unpublished research, Table B compares replacing (−)-menthol with a racemic menthol in a 1:1 in a toothpaste formulation. Such a direct replacement is not preferred given the reduced cooling profile and olfactory differences; however, a portion of L-menthol is preferably replaced by racemic-menthol to gain cost efficiency while minimizing impact to the overall mint flavor profiles.
Table B is a comparison of attributes between (-)-menthol and racemic menthol in a toothpaste context (using CREST Cavity formulation).
This value represents the concentration of a coolant where 50% of its maximal cooling is observed.

[2] = Expert sensory testing of racemic menthol versus (−)-menthol in a toothpaste formulation (CREST Cavity) with a standard spearmint flavor; format: in vivo
Procedure: In separate, unpublished internal experiments, perceptual experiences of racemic menthol are quantified via expert sensory testing. The use of a standard spearmint flavor (minimizing extra menthol contribution) compared racemic menthol to (−)-menthol in a toothpaste formulation (CREST Cavity). There are several sensory observations taken from these experiments. […] These aromatic notes appear during brushing and disappear after 5-10 minutes post expectoration and are more pronounced as concentrations increase.

Row | EC 50 [1] | Compound | Potency compared to L-Menthol [1] | Time Point at Maximum Cooling [1] [min] | Maximum Cooling (0-60 scale) [1] | Maximum Longevity [1] | Less potent than (−)-menthol for cooling [2]
1 | 1,250 to 1,500 parts per million | CC1CCC(C(C)C)C(O)C1 (racemic) [Racemic Menthol, racemic menthol] | ~0.65-0.7x | ~1 | 35 | Up to 20 minutes | 25-30%
2 | 1,750 to 2,250 parts per million | CC1CCC(C(C)C)C(O)C1 (single isomer, unassigned; (-)) [(−)-Menthol, (−)-menthol] | 1x | ~5 | 40 | Up to 25 minutes | –
